Molecular target: human kallikrein
Assay: Human kallikrein enzyme assay
Format: biochemical
Conditions: supplementary csv
Experimental: Recombinant human kallikrein (R&D Systems, MN, USA) was activated by thermolysin (R&D Systems, MN, USA) prior to use. Compounds were dissolved in DMSO and then diluted in an assay buffer [50 mmol/L Tris–HCl (pH 7.5), 150 mmol/L NaCl, 10 mmol/L CaCl2, and 0.01% (w/v) Tween 20]. After 5 μL of compound solution was added to a 384-well black plate, 5 μL of substrate solution containing 150 μmol/L Pro-Phe-Arg-AMC (Peptide Institute, Osaka, Japan) was added to the plate. Then, 0.42 nmol/L human kallikrein was added to the plate and incubated at room temperature for 60 min. The fluorescence at an excitation wavelength of 380 nm and an emission wavelength of 460 nm was detected using a SpectraMax Paradigm plate reader.

IC50: > 30 µM
SMILES: Cc1cc([C@H]2CN(c3cc(F)c4c(N)nncc4c3)CCN2c2cccc(F)c2)no1 [Compound (R)-8, 8-Fluoro-6-[(3R)-4-(3-fluorophenyl)-3-(5-methyl-1,2-oxazol-3-yl)piperazin-1-yl]phthalazin-1-amine]
